Test results taken from patent EP0911319A1, “Malonic acid based matrix metalloproteinase inhibitors” (Roche Diagnostics GmbH, priority 1997, dated 1999).
Like-named read-outs stand apart in the source and are kept apart here.

Target: catalytic domain (Met80-Gly242) of human neutrophil collagenase (Homo sapiens, UniProt P22894)
Assay type: biochemical
Details: towards HNC, 8 nM enzyme, 10 µM DNP-Pro-Leu-Gly-Leu-Trp-Ala-D-Arg-NH2, 50 mM Tris/HCl pH 7.6, 25°C
Procedure: Determination of the inhibitory effect (enzyme assay)
In order to determine the inhibition of MMPs, for example HNC, the catalytic domain (isolation and purification see example 1) is incubated with inhibitors having various concentrations. […] The synthetic MMP substrate is a heptapeptide which is coupled, at the C-terminus, with DNP (Dinitrophenol). Said DNP residue quenches by steric hindrance the fluorescence of the adjacent tryptophane of the heptapeptide. After cleavage of a tripeptide which includes the DNP group, the tryptophane fluorescence increases. […] The reaction was started directly by giving the substrate into the solution. The cleavage of the fluorogenic substrate was followed by fluorescence spectroscopy with an excitation and emission wavelength of 280 and 350 nm, respectively. The IC50 value was calculated as the inhibitor concentration, which is necessary to decrease the velocity of the reaction to the half in comparison to the reaction without inhibitor.

catalytic domain (Met80-Gly242) of human neutrophil collagenase, sequence (P22894 100-262): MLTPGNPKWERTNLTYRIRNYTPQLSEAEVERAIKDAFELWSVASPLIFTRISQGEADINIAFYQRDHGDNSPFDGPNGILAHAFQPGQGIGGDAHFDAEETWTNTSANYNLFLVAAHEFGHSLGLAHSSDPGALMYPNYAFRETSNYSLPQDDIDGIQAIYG

With O=C(NO)C(Cc1ccccc1)C(=O)NCCCc1ccccc1 (racemic) [Example 4, (±)-HONH-Mal(Bn)-NH-(CH2)3-C6H5] the IC50 (read-out: IC50) was 640 nM.
CCCCCCCCNC(=O)C(CC(C)C)C(=O)NO (racemic) [Example 2, (±)-HONH-Mal(iBu)-NH-(CH2)7-CH3] showed an IC50 (read-out: IC50) of 300 nM.
Molecule O=C(NO)C(CCc1ccccc1)C(=O)NCCCc1ccccc1 (racemic) [Example 3, (±)-HONH-Mal(CH2CH2-C6H5)-NH-(CH2)3-C6H5] has an IC50 (read-out: IC50) of 560 nM.
CC(C)CC(C(=O)NO)C(=O)NCCCc1ccccc1 (racemic) [Example 1, (±)-HONH-Mal(iBu)-NH-(CH2)3-C6H5] gave an IC50 of 620 nM.
